According to ChEMBL document CHEMBL5543059, “Discovery of anti-inflammatory natural flavonoids: Diverse scaffolds and promising leads for drug discovery” (Eur J Med Chem, 2023):

Key:
[1] = system: Rattus norvegicus; assay: Anti-inflammatory activity against LPS-induced paw edema in Sprague-Dawley rat assessed as inhibition of paw edema; format: functional
[2] = system: RAW264.7; assay: Anti-inflammatory activity in LPS-stimulated mouse RAW264.7 cells assessed as inhibition of NO production by Griess reagent based analysis; format: functional, cell-based
[3] = system: RAW264.7; assay: Anti-inflammatory activity in LPS-stimulated mouse RAW264.7 cells assessed as inhibition of NO production by Griess reagent based assay; format: functional, cell-based
[4] = system: BV-2; assay: Antiinflammatory activity in mouse BV-2 cells assessed as reduction in LPS-induced NO production by Griess reagent based analysis; format: functional, cell-based
[5] = Inhibition of nitric oxide synthase (unknown origin); design: species or system Homo sapiens
[6] = system: RAW264.7; assay: Anti-inflammatory activity against mouse RAW264.7 cells assessed as reduction in NO production pre-incubated with compound for 1 hrs followed by LPS-stimulation and measured for 1 hrs by […]; format: functional, cell-based
[7] = system: RAW264.7; assay: Anti-inflammatory activity against mouse RAW264.7 cells assessed as inhibition of LPS-induced NO production pre-incubated for 1 hr followed by compound addition and measured after 18 hrs by Griess reagent based analysis; format: functional, cell-based
[8] = system: Mus musculus; assay: Anti-inflammatory activity against TPA-induced mouse ear edema model assessed as inhibition of ear edema at 1 uM relative to control; format: functional; design: scale not given: the % may be the effect or the level left
[9] = system: BV-2; assay: Anti-inflammatory activity against LPS-induced mouse BV-2 cells assessed as reduction in IL-6 production at 10 uM pre-incubated for 30 mins followed by LPS-stimulation and measured after 6 hrs by RT-PCR analysis; format: functional; design: scale not given: the % may be the effect or the level left; settings: time 390 min, 6.5 h
[10] = system: BV-2; assay: Anti-inflammatory activity against LPS-induced mouse BV-2 cells assessed as inhibition of COX-2 level at 12.5 microg/ml pre-incubated for 30 mins followed by LPS-stimulation and measured after 6 hrs by RT-PCR analysis; format: functional; design: scale not given: the % may be the effect or the level left; settings: dose 12.5 µg/ml; time 390 min; 6.5 h
[11] = system: BV-2; assay: Anti-inflammatory activity against LPS-induced mouse BV-2 cells assessed as inhibition of 5-lipoxygenase level at 25 microg/ml pre-incubated for 30 mins followed by LPS-stimulation and measured after 6 hrs by RT-PCR analysis; format: functional; design: scale not given: the % may be the effect or the level left; settings: dose 25 µg/ml; time 390 min; 6.5 h
[12] = system: BV-2; assay: Anti-inflammatory activity against LPS-induced mouse BV-2 cells assessed as reduction in Interleukin-1beta production at 10 uM pre-incubated for 30 mins followed by LPS-stimulation and measured after 6 hrs by RT-PCR analysis; format: functional; design: scale not given: the % may be the effect or the level left; settings: time 390 min, 6.5 h
[13] = system: RAW264.7; assay: Anti-inflammatory activity against mouse RAW264.7 cells assessed as inhibition of LPS-induced NO production; format: functional, cell-based
[14] = system: Mus musculus; assay: Antiinflammatory activity against TPA-induced CD-1 mouse ear edema model assessed as reduction in ear edema; format: functional, organism-based
[15] = system: Mus musculus; assay: Antiinflammatory activity against TPA-induced CD-1 mouse ear edema model assessed as reduction in ear edema at 0.25 mg/kg relative to control; format: functional; design: scale not given: the % may be the effect or the level left

COc1ccc(-c2cc(=O)c3c(O)c(OC)c(O)cc3o2)cc1OC [EUPATILIN]
ID50 [1]: 0.28 umol/cm2

COc1cc(-c2cc(=O)c3c(O)cc(O)cc3o2)cc(OC)c1O [TRICIN]
IC50 [2]: 28 µM | IC50 [3]: 46.4 µM

COc1cc(-c2cc(=O)c3c(O)c(OC)c(O)cc3o2)ccc1O [JACEOSIDINE]
IC50 [4]: 27 µM

O=C1C[C@@H](c2ccc(O)cc2)Oc2cc(O)ccc21 [LIQUIRTIGENIN]
IC50 [5]: 19.1 µM | IC50 [6]: 16.3 µM

CC(C)=CCC/C(C)=C/Cc1c(C2CC(=O)c3c(cc(O)c(CC=C(C)C)c3O)O2)ccc(O)c1O (stereo not given)
IC50 [7]: 2.4 µM

O=c1c(O)c(-c2ccccc2)oc2cc(O)cc(O)c12 [GALANGIN]
Activity [8]: 27.7%

O=c1cc(-c2ccc(O)cc2)oc2cc(O)cc(O)c12 [APIGENIN]
Activity [9]: 68% | Activity [10]: 89.2% | Activity [11]: 88.3% | Activity [12]: 68% | IC50 [13]: 12.2 µM

O=C1C[C@@H](c2ccc(O)c(O)c2)Oc2cc(O)cc(O)c21 [ERIODICTYOL]
IC50 [14]: 0.72 µM | Activity [15]: 56.3%
